According to patent US10370343B2, “[6,6] Fused bicyclic HDAC8 inhibitors” (FORMA Therapeutics, Inc., priority 2015, dated 2019):

The molecules below were run against T1, Recombinant N-terminal GST tag full-length human HDAC8 (Homo sapiens, UniProt Q9BY41) (assay: HDAC8 probe binding assay, time resolved fluorescence (TRF) format). Conditions: compounds grouped by IC50 range (Table 2).
T1 construct: Recombinant N-terminal GST tag full-length human HDAC8; purchased SignalChem H90-30G-1000; host or cells: baculovirus in Sf9 insect cells
T1 sequence (Q9BY41 1-377): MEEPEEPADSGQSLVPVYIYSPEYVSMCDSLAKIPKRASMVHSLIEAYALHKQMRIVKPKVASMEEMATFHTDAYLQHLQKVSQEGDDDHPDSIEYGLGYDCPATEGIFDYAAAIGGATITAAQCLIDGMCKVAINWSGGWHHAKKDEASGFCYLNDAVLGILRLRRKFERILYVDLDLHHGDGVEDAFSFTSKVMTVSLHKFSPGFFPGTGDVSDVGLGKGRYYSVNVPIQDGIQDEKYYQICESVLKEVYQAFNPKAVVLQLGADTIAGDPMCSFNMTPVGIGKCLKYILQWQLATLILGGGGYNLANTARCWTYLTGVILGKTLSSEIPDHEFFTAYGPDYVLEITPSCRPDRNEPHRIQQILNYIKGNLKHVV
In short: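 Probe-binding TRF assay using full-length N-GST human HDAC8 expressed in baculovirus-infected Sf9 cells, incubated 16 h at room temperature and read at 340 nm excitation, 485/535 nm emission. Percent inhibition was normalised to no-enzyme and DMSO controls. IC50 was obtained by 4-parameter logistic fit.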
In the case of `CC1(C)Oc2ccc(C(=O)NO)cc2N(Cc2nc3ccccc3s2)C1=O` [Compound I-295, 4-(benzo[d]thiazol-2-ylmethyl)-N-hydroxy-2,2-dimethyl-3-oxo-3,4-dihydro-2H-benzo[b][1,4]oxazine-6-carboxamide], the IC50 is reported as 25 to 100 nM. `O=C(NO)c1ccc2c(c1)N(Cc1cccc3ccccc13)C(=O)CO2` [Compound I-230, N-hydroxy-4-(naphthalen-1-ylmethyl)-3-oxo-3,4-dihydro-2H-benzo[b][1,4]oxazine-6-carboxamide] showed an IC50 of 25 to 100 nM. For `O=C(NO)c1ccc2c(c1)N(Cc1nc3cc(C(F)(F)F)ccc3o1)C(=O)CO2` [Compound I-234, N-hydroxy-3-oxo-4-((5-(trifluoromethyl)benzo[d]oxazol-2-yl)methyl)-3,4-dihydro-2H-benzo[b][1,4]oxazine-6-carboxamide], the IC50 was at most 25 nM. With `O=C(NO)c1ccc2c(c1)N(Cc1ccc3ccccc3n1)C(=O)CO2` [Compound I-232, N-hydroxy-3-oxo-4-(quinolin-2-ylmethyl)-3,4-dihydro-2H-benzo[b][1,4]oxazine-6-carboxamide] the IC50 was at most 25 nM. With `COCCOc1ccc(CN2C(=O)COc3ccc(C(=O)NO)cc32)cc1` [Compound I-196, N-hydroxy-4-(4-(2-methoxyethoxy)benzyl)-3-oxo-3,4-dihydro-2H-benzo[b][1,4]oxazine-6-carboxamide] the IC50 was at most 25 nM. Molecule `Cc1nn(C)c2ncc(CN3C(=O)COc4ccc(C(=O)NO)cc43)cc12` [Compound I-325, 4-((1,3-dimethyl-1H-pyrazolo[3,4-b]pyridin-5-yl)methyl)-N-hydroxy-3-oxo-3,4-dihydro-2H-benzo[b][1,4]oxazine-6-carboxamide] has an IC50 of at most 25 nM. `O=C(NO)c1ccc2c(c1)N(Cc1cccc(Oc3ccccc3)c1)C(=O)CO2` [Compound I-220, N-hydroxy-3-oxo-4-(3-phenoxybenzyl)-3,4-dihydro-2H-benzo[b][1,4]oxazine-6-carboxamide] showed an IC50 of at most 25 nM. With `O=C(NO)c1ccc2c(c1)N(Cc1cc3ccccc3cn1)C(=O)CO2` [Compound I-334, N-hydroxy-4-(isoquinolin-3-ylmethyl)-3-oxo-3,4-dihydro-2H-benzo[b][1,4]oxazine-6-carboxamide] the IC50 was at most 25 nM. Work on `COc1ccc(CN2CC(C(=O)N3CCOCC3)Oc3ccc(C(=O)NO)cc32)cc1` (centres unmarked) [Compound I-171, N-hydroxy-4-(4-methoxybenzyl)-2-(morpholine-4-carbonyl)-3,4-dihydro-2H-benzo[b][1,4]oxazine-6-carboxamide] yielded an IC50 of 25 to 100 nM. In the case of `O=C(NO)c1ccc2c(c1)N(Cc1ncn(-c3ccccc3)n1)C(=O)CO2` [Compound I-193, N-hydroxy-3-oxo-4-((1-phenyl-1H-1,2,4-triazol-3-yl)methyl)-3,4-dihydro-2H-benzo[b][1,4]oxazine-6-carboxamide], the IC50 is reported as 25 to 100 nM. `O=C(NO)c1ccc2c(c1)N(Cc1ccc(-n3ccnc3)cc1)C(=O)CO2` [Compound I-187, 4-(4-(1H-imidazol-1-yl)benzyl)-N-hydroxy-3-oxo-3,4-dihydro-2H-benzo[b][1,4]oxazine-6-carboxamide] gave an IC50 of at most 25 nM. `CN(C)c1ccc(CN2C(=O)COc3ccc(C(=O)NO)cc32)cc1` [Compound I-361, 4-(4-(dimethylamino)benzyl)-N-hydroxy-3-oxo-3,4-dihydro-2H-benzo[b][1,4]oxazine-6-carboxamide] gave an IC50 of at most 25 nM. Molecule `O=C(NO)c1ccc2c(c1)N(Cc1ccc(OC3CCC3)cc1)C(=O)CO2` [Compound I-331, 4-(4-cyclobutoxybenzyl)-N-hydroxy-3-oxo-3,4-dihydro-2H-benzo[b][1,4]oxazine-6-carboxamide] has an IC50 of at most 25 nM. `CC(C)(C)OC(=O)N1CCc2cc(CN3C(=O)COc4ccc(C(=O)NO)cc43)ccc2C1` [Compound I-181, tert-butyl 6-((6-(hydroxycarbamoyl)-3-oxo-2,3-dihydrobenzo[b][1,4]oxazin-4-yl)methyl)-3,4-dihydroisoquinoline-2(1H)-carboxylate] was tested, and the IC50 was at most 25 nM.
